Experimental data as given in the supplement of paper PMC10307832.

compound: CC(C)(C)c1nc(-c2cccc(NS(=O)(=O)c3c(F)cccc3F)c2F)c(-c2ccnc(N)n2)s1 [Dabrafenib] + N=C(N)NC(=N)NCCc1ccccc1 [Phenformin] (partner 250 µM); assay: relative viability (nuclei count vs DMSO), 5 days (fraction); higher = more cells survive; settings: first compound 0.003 µM
How it was run: (§1)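 Five library-drug doses in √10 steps were combined with a fixed anchor-drug dose, or a single drug was given alone, by pin tool to lung cancer cell lines in 1536-well plates the day after seeding. Nuclei were stained and counted after 5 days. Relative viability is the nuclei count in treated wells over that in vehicle wells, taken as the median of duplicate plates.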

Point of comparison: PC-3 [JPC-3], relative viability 0.405. Against it:
- EPLC-272H — lower, 0.211
- NCI-H3122 — lower, 0.32
- NCI-H1915 — lower, 0.392
- NCI-H1975 — lower, 0.227
- LK-2 — lower, 0.38
- HCC-366 — lower, 0.325
- LCLC-97TM1 — lower, 0.339
- NCI-H661 — lower, 0.256
- NCI-H1993 — lower, 0.33
- NCI-H2009 — higher, 0.412
- NCI-H520 — higher, 0.431
- LXF-289 — lower, 0.364
- NCI-H358 — lower, 0.193

same assay, conditions: first compound 0.009487 µM

Point of comparison: NCI-H1734, relative viability 0.302. Against it:
- NCI-H1437 — lower, 0.3
- RERF-LC-KJ — higher, 0.435
- BEN — lower, 0.257
- NCI-H460 — higher, 0.533
- H3255 — higher, 0.444
- SK-LU-1 — higher, 0.571
- NCI-H1793 — higher, 0.398
- NCI-H23 — higher, 0.816
- SW 1573 — higher, 0.445
- NCI-H838 — higher, 0.648
- NCI-H2342 — higher, 0.599
- EPLC-272H — higher, 0.331
- NCI-H3122 — higher, 0.349
- NCI-H1915 — higher, 0.402
- NCI-H727 — higher, 0.425
- NCI-H1975 — higher, 0.411
- LK-2 — higher, 0.573
- HCC-366 — higher, 0.672
- NCI-H2087 — higher, 0.527
- LCLC-97TM1 — higher, 0.398
- NCI-H661 — lower, 0.277
- NCI-H2405 — lower, 0.286
- NCI-H1993 — higher, 0.536
- PC-3 [JPC-3] — higher, 0.491
- NCI-H2009 — higher, 0.426
- NCI-H2347 — higher, 0.461
- NCI-H520 — higher, 0.638
- LXF-289 — higher, 0.511
- NCI-H358 — higher, 0.457

same assay, conditions: first compound 0.03 µM

Point of comparison: NCI-H1975, relative viability 0.411. Against it:
- NCI-H1437 — lower, 0.259
- RERF-LC-KJ — higher, 0.43
- NCI-H1734 — lower, 0.388
- NCI-H460 — higher, 0.52
- H3255 — lower, 0.338
- SK-LU-1 — lower, 0.326
- NCI-H23 — higher, 0.762
- SW 1573 — lower, 0.324
- NCI-H838 — higher, 0.451
- NCI-H2342 — higher, 0.546
- EPLC-272H — lower, 0.406
- NCI-H3122 — lower, 0.39
- NCI-H1915 — lower, 0.266
- NCI-H727 — higher, 0.515
- HCC-366 — higher, 0.539
- NCI-H2087 — higher, 0.597
- LCLC-97TM1 — higher, 0.415
- NCI-H661 — lower, 0.268
- NCI-H1993 — higher, 0.482
- PC-3 [JPC-3] — higher, 0.465
- NCI-H2009 — lower, 0.341
- NCI-H2347 — lower, 0.229
- NCI-H520 — lower, 0.289
- LXF-289 — higher, 0.487
- NCI-H358 — higher, 0.467

same assay, conditions: first compound 0.09487 µM

Point of comparison: NCI-H2347, relative viability 0.382. Against it:
- NCI-H1437 — lower, 0.3
- RERF-LC-KJ — higher, 0.447
- NCI-H1734 — higher, 0.389
- BEN — lower, 0.272
- NCI-H460 — higher, 0.497
- H3255 — higher, 0.391
- SK-LU-1 — higher, 0.47
- NCI-H23 — higher, 0.51
- SW 1573 — higher, 0.465
- NCI-H838 — higher, 0.566
- NCI-H2342 — higher, 0.653
- EPLC-272H — lower, 0.267
- NCI-H3122 — lower, 0.369
- NCI-H1915 — lower, 0.29
- NCI-H1975 — lower, 0.356
- LK-2 — higher, 0.475
- HCC-366 — higher, 0.483
- NCI-H2087 — higher, 0.395
- LCLC-97TM1 — lower, 0.328
- NCI-H661 — lower, 0.323
- NCI-H2405 — lower, 0.37
- NCI-H1993 — higher, 0.446
- PC-3 [JPC-3] — higher, 0.441
- NCI-H2009 — lower, 0.312
- NCI-H520 — higher, 0.442
- LXF-289 — higher, 0.493
- NCI-H358 — lower, 0.344

same assay, conditions: first compound 0.3 µM

Point of comparison: NCI-H3122, relative viability 0.37. Against it:
- NCI-H1437 — higher, 0.4
- RERF-LC-KJ — higher, 0.546
- NCI-H1734 — lower, 0.362
- BEN — lower, 0.242
- NCI-H460 — higher, 0.46
- H3255 — higher, 0.383
- SK-LU-1 — higher, 0.373
- NCI-H1793 — higher, 0.39
- NCI-H23 — higher, 0.687
- SW 1573 — higher, 0.541
- NCI-H838 — higher, 0.625
- NCI-H2342 — higher, 0.612
- EPLC-272H — lower, 0.332
- NCI-H1915 — lower, 0.272
- NCI-H727 — higher, 0.595
- NCI-H1975 — lower, 0.363
- LK-2 — higher, 0.603
- HCC-366 — higher, 0.612
- NCI-H2087 — higher, 0.391
- LCLC-97TM1 — lower, 0.259
- NCI-H661 — lower, 0.306
- NCI-H2405 — higher, 0.371
- NCI-H1993 — higher, 0.513
- PC-3 [JPC-3] — higher, 0.476
- NCI-H2009 — lower, 0.268
- NCI-H2347 — lower, 0.352
- NCI-H520 — higher, 0.612
- LXF-289 — higher, 0.542
- NCI-H358 — higher, 0.419

compound: CC(C)(C)c1nc(-c2cccc(NS(=O)(=O)c3c(F)cccc3F)c2F)c(-c2ccnc(N)n2)s1 [Dabrafenib] + CC(=O)c1c(C)c2cnc(Nc3ccc(N4CCNCC4)cn3)nc2n(C2CCCC2)c1=O [Palbociclib] (partner 0.5 µM); assay: as above; settings: first compound 0.003 µM
How it was run: as §1

Point of comparison: NCI-H2342, relative viability 0.511. Against it:
- NCI-H1437 — lower, 0.307
- RERF-LC-KJ — higher, 1.11
- NCI-H460 — lower, 0.229
- H3255 — lower, 0.288
- SW 1573 — lower, 0.431
- NCI-H838 — lower, 0.207
- NCI-H3122 — lower, 0.186
- NCI-H1915 — higher, 0.52
- NCI-H727 — higher, 0.598
- NCI-H1975 — lower, 0.437
- LK-2 — higher, 0.687
- HCC-366 — lower, 0.434
- NCI-H661 — lower, 0.383
- NCI-H1993 — higher, 0.672
- NCI-H2009 — lower, 0.153
- NCI-H520 — lower, 0.216
- LXF-289 — higher, 0.59
- NCI-H358 — lower, 0.111

same assay, conditions: first compound 0.009487 µM

Point of comparison: NCI-H2347, relative viability 0.513. Against it:
- NCI-H1437 — lower, 0.35
- RERF-LC-KJ — higher, 1.09
- NCI-H1734 — lower, 0.352
- BEN — lower, 0.477
- NCI-H460 — lower, 0.1
- H3255 — lower, 0.313
- SK-LU-1 — lower, 0.395
- NCI-H1793 — lower, 0.411
- NCI-H23 — higher, 0.575
- SW 1573 — lower, 0.484
- NCI-H838 — lower, 0.238
- NCI-H2342 — higher, 0.566
- EPLC-272H — lower, 0.318
- NCI-H3122 — lower, 0.207
- NCI-H1915 — higher, 0.579
- NCI-H727 — higher, 0.64
- NCI-H1975 — higher, 0.581
- LK-2 — lower, 0.377
- HCC-366 — lower, 0.403
- NCI-H2087 — lower, 0.218
- LCLC-97TM1 — lower, 0.206
- NCI-H661 — lower, 0.406
- NCI-H2405 — higher, 0.555
- NCI-H1993 — higher, 0.786
- PC-3 [JPC-3] — higher, 0.571
- NCI-H2009 — lower, 0.22
- NCI-H520 — lower, 0.228
- LXF-289 — higher, 0.594
- NCI-H358 — lower, 0.149

same assay, conditions: first compound 0.03 µM

Point of comparison: NCI-H460, relative viability 0.148. Against it:
- NCI-H1437 — higher, 0.363
- RERF-LC-KJ — higher, 1.13
- NCI-H1734 — higher, 0.287
- H3255 — higher, 0.343
- SK-LU-1 — higher, 0.238
- NCI-H23 — higher, 0.465
- SW 1573 — higher, 0.363
- NCI-H838 — higher, 0.209
- NCI-H2342 — higher, 0.474
- EPLC-272H — higher, 0.286
- NCI-H3122 — higher, 0.2
- NCI-H1915 — higher, 0.447
- NCI-H1975 — higher, 0.553
- HCC-366 — higher, 0.336
- NCI-H2087 — higher, 0.246
- LCLC-97TM1 — higher, 0.266
- NCI-H661 — higher, 0.426
- NCI-H2405 — higher, 0.374
- NCI-H1993 — higher, 0.746
- PC-3 [JPC-3] — higher, 0.6
- NCI-H2009 — higher, 0.179
- NCI-H2347 — higher, 0.471
- NCI-H520 — higher, 0.196
- LXF-289 — higher, 0.673
- NCI-H358 — lower, 0.12

same assay, conditions: first compound 0.09487 µM

Point of comparison: NCI-H23, relative viability 0.455. Against it:
- NCI-H1437 — lower, 0.384
- RERF-LC-KJ — higher, 1.02
- NCI-H1734 — lower, 0.344
- BEN — lower, 0.426
- NCI-H460 — lower, 0.226
- H3255 — lower, 0.313
- SK-LU-1 — lower, 0.365
- NCI-H1793 — lower, 0.289
- SW 1573 — lower, 0.349
- NCI-H838 — lower, 0.214
- NCI-H2342 — higher, 0.608
- EPLC-272H — lower, 0.366
- NCI-H3122 — lower, 0.167
- NCI-H1915 — lower, 0.417
- NCI-H727 — higher, 0.719
- NCI-H1975 — higher, 0.456
- LK-2 — higher, 0.555
- HCC-366 — lower, 0.354
- NCI-H2087 — lower, 0.235
- LCLC-97TM1 — lower, 0.184
- NCI-H661 — higher, 0.458
- NCI-H2405 — higher, 0.491
- NCI-H1993 — higher, 0.664
- PC-3 [JPC-3] — higher, 0.534
- NCI-H2009 — lower, 0.149
- NCI-H2347 — higher, 0.476
- NCI-H520 — lower, 0.241
- LXF-289 — higher, 0.62
- NCI-H358 — lower, 0.153

same assay, conditions: first compound 0.3 µM

Point of comparison: NCI-H3122, relative viability 0.181. Against it:
- NCI-H1437 — higher, 0.413
- RERF-LC-KJ — higher, 1.13
- NCI-H1734 — higher, 0.347
- BEN — higher, 0.448
- NCI-H460 — lower, 0.111
- H3255 — higher, 0.333
- SK-LU-1 — higher, 0.371
- NCI-H1793 — higher, 0.291
- NCI-H23 — higher, 0.634
- SW 1573 — higher, 0.392
- NCI-H838 — higher, 0.236
- NCI-H2342 — higher, 0.523
- EPLC-272H — higher, 0.354
- NCI-H1915 — higher, 0.508
- NCI-H727 — higher, 0.675
- NCI-H1975 — higher, 0.384
- LK-2 — higher, 0.84
- HCC-366 — higher, 0.344
- NCI-H2087 — higher, 0.208
- LCLC-97TM1 — higher, 0.198
- NCI-H661 — higher, 0.433
- NCI-H2405 — higher, 0.485
- NCI-H1993 — higher, 0.701
- PC-3 [JPC-3] — higher, 0.55
- NCI-H2009 — lower, 0.128
- NCI-H2347 — higher, 0.432
- NCI-H520 — higher, 0.217
- LXF-289 — higher, 0.616
- NCI-H358 — lower, 0.122
